# Test results published in patent US11279730B2, “Oxysterols and methods of use thereof” (Sage Therapeutics, Inc., priority 2016, dated 2022).
# Key:
# [1] = molecular target: T1, GluN2B glutamate receptors (Homo sapiens, UniProt Q05586+Q13224); experiment: Whole-cell patch clamp of mammalian cells (Ionworks Barracuda, IWB), NMDA potentiation (PAM), GluN2B; type: cell-based; conditions: peak current amplitude; for GluN2B PCA IWB Ephys % potentiation at 3 μM: 3 μM test compound, co-application with EC20 L-glutamate and 30 μM glycine; for EC50: 8-point concentration-response, read-out: GluN2B PCA EC50; for Emax: maximal potentiation, read-out: GluN2B PCA Emax (%)
# T1 construct: expressed in transfected cells
# T1 sequence (Q13224 27-1484, other chains not shown): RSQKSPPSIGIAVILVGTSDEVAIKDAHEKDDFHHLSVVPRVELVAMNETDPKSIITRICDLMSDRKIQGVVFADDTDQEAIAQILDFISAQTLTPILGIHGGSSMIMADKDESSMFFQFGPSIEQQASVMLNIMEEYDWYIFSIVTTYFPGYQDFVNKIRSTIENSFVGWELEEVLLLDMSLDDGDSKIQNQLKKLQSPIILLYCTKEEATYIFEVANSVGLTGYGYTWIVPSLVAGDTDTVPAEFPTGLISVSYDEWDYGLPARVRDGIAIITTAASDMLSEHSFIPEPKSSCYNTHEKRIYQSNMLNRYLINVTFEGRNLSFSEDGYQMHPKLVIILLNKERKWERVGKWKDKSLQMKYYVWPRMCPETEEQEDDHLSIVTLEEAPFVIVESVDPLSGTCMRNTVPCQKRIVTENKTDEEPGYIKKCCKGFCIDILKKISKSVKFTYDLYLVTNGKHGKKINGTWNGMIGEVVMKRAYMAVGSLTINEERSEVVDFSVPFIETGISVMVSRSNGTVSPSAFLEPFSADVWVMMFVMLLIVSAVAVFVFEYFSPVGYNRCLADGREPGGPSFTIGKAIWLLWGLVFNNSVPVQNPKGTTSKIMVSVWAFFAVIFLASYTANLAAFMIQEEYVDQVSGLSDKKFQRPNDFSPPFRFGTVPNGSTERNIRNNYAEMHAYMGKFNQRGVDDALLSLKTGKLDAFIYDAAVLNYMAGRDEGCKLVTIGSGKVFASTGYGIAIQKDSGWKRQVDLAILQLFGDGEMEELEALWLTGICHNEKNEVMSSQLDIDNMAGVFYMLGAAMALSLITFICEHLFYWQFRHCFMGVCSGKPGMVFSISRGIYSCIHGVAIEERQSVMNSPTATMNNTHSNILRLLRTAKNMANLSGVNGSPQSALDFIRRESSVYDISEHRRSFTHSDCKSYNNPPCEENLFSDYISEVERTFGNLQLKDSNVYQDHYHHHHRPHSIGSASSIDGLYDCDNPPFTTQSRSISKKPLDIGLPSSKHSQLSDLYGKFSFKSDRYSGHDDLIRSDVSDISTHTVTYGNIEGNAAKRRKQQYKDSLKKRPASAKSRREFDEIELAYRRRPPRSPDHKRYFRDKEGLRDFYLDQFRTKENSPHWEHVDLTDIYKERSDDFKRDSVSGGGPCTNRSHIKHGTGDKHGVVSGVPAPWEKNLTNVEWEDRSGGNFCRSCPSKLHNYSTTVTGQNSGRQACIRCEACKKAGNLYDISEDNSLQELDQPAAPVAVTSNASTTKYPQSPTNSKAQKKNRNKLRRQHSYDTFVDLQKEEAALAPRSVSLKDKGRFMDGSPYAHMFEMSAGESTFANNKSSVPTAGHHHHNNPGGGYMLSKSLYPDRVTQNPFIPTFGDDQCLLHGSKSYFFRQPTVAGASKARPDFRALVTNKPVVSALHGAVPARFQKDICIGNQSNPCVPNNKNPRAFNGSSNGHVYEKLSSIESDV
# Protocol: (§1) NMDA potentiation in mammalian cells which expressed NMDA receptors was assessed using the whole cell patch clamp to determine the PAM activity of compounds as described below. An automatic patch-clamp system can be used determine the […] activity of compounds as described below.
# (§2) The whole-cell patch-clamp technique was used to investigate the effects of positive allosteric modulating activity of test compounds on GlunN1/GluN2A and GluN2B glutamate receptors expressed in mammalian cells.
# (§3) Test article effects were evaluated in 8-point concentration-response format (4 replicate wells/concentration). All test and control solutions contained 0.3% DMSO and 0.01% Kolliphor® EL (C5135, Sigma). The test article formulations were loaded in a 384-well compound plate using an automated liquid handling system (SciClone ALH3000, Caliper LifeSciences). The measurements were performed using Ion Works Barracuda platform following this procedure:
# (§4) • a) Intracellular solution (mM): 50 mM CsCl, 90 mM CsF, 2 mM MgCl2, 5 mM EGTA, 10 mM HEPES. Adjust to pH 7.2 with CsOH. • b) Extracellular solution, HB-PS (composition in mM): NaCl, 137; KCl, 1.0; CaCl2, 5; HEPES, 10; Glucose, 10; pH adjusted to 7.4 with NaOH (refrigerated until use). • c) Holding potential: −70 mV, potential during agonist/PAM application: −40 mV. Recording Procedure: • a) Extracellular buffer will be loaded into the PPC plate wells (11 μL per well). Cell suspension will be pipetted into the wells (9 μL per well) of the PPC planar electrode. • b) Whole-cell recording configuration will be established via patch perforation with membrane currents recorded by on-board patch clamp amplifiers. • c) Two recordings (scans) will be performed. First, during pre-application of test article alone (duration of pre-application—5 min) and second, during test articles and agonist (EC20 L-glutamate and 30 μM glycine) co-application to detect positive modulatory effects of the test article.
# (§5) Test Article Administration: The first pre-application will consist of the addition of 20 μL of 2× concentrated test article solution and, second, of 20 μL of 1× concentrated test article and agonist at 10 μL/s (2 second total application time).
# (§6) Potentiating effect of positive allosteric modulators (PAM) on the channel will be calculated as % activation=(IPAM/IEC10-30)×100%−100% where IPAM will be the L-glutamate EC10-30-elicited current in presence of various concentrations of test articles and IEC20 will be the mean current elicited with L-glutamate EC20. PAM concentration-response data will be fitted to an equation of the form: % Activation=% L-glutamate EC20+{(% MAX−% L-glutamate EC20)/[1+([Test]/EC50)^N]} where [Test] will be the concentration of PAM (test article), EC50 will be the concentration of PAM producing half-maximal activation, N will be the Hill coefficient, % L-glutamate EC20 will be the percentage of the current Elicited with L-glutamate EC20, % MAX is the percentage of the current activated with the highest dose of PAM co-admitted with L-glutamate EC20 and % Activation will be the percentage of the current elicited with L-glutamate EC10-30 at each PAM concentration.
# (§7) The maximal amplitude of the evoked currents are measured and defined as Peak Current Amplitude (PCA).
# [2] = molecular target: T2, GlunN1/GluN2A glutamate receptors (Homo sapiens, UniProt Q05586+Q12879); experiment: Whole-cell patch clamp of mammalian cells (Ionworks Barracuda, IWB), NMDA potentiation (PAM), GluN2A; type: cell-based; conditions: peak current amplitude; for GluN2A PCA IWB Ephys % potentiation at 3 μM: 3 μM test compound, co-application with EC20 L-glutamate and 30 μM glycine; for EC50: 8-point concentration-response, read-out: GluN2A PCA EC50; for Emax: maximal potentiation, read-out: GluN2A PCA Emax (%)
# T2 construct: expressed in transfected cells
# T2 sequence (Q12879 23-1464, other chains not shown): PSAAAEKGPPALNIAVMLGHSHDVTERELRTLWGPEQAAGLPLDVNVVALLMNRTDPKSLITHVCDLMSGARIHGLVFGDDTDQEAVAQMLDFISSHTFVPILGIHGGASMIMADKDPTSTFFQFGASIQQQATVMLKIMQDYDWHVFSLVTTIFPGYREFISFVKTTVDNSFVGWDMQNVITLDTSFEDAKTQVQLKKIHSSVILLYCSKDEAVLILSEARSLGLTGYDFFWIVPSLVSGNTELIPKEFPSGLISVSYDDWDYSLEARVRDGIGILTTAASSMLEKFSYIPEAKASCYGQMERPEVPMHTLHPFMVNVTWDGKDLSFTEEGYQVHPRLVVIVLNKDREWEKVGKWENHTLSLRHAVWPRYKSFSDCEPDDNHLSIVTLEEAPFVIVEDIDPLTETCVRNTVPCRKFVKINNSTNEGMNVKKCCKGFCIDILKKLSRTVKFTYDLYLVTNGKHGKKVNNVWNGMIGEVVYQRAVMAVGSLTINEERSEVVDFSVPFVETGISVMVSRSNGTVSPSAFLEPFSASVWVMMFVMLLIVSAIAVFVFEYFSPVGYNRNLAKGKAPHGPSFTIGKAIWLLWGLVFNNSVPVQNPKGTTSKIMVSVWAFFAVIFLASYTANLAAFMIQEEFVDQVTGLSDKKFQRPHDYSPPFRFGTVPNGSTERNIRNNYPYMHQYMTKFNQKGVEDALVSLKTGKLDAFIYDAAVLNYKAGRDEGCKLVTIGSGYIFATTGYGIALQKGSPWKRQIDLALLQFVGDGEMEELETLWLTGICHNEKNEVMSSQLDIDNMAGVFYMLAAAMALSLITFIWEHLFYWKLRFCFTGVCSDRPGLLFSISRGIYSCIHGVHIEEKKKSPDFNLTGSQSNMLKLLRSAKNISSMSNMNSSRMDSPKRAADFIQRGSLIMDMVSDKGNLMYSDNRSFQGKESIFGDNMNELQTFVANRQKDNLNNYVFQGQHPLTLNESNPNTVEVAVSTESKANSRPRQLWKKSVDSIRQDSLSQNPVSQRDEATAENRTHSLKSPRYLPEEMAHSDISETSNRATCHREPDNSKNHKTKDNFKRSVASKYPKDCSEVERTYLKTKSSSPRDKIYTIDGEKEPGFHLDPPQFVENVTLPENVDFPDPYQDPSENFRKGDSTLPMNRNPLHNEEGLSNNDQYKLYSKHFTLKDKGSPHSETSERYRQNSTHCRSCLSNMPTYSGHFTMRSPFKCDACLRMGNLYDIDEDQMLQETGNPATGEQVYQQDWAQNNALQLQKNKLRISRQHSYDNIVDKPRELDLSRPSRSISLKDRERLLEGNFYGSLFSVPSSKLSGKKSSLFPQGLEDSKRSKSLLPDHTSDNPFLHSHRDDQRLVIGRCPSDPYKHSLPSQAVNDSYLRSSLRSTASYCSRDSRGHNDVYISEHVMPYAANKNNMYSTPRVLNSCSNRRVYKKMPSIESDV
# Protocol: as §1, §2
# HEK293 cells were transformed with adenovirus 5 DNA and transfected with cDNA encoding the human GRIN1/GRIN2A genes. Stable transfectants were selected using G418 and Zeocin-resistance genes incorporated into the expression plasmid and selection pressure maintained with G418 and Zeocin in the medium. Cells were cultured in Dulbecco's Modified Eagle Medium/Nutrient Mixture (D-MEM/F-12) supplemented with 10% fetal bovine serum, 100 μg/ml penicillin G sodium, 100 μg/ml streptomycin sulphate, 100 μg/ml Zeocin, 5 μg/ml blasticidin and 500 μg/ml G418.
# as §3, §4, §5, §6, §7
structure (smiles),measurement,setting,value
C[C@H](CCC(C)(C)O)[C@H]1CC[C@H]2[C@@H]3CC=C4C[C@@H](O)CC[C@]4(C)[C@H]3[C@@H](O)C[C@]12C [Compound 3],GluN2B PCA IWB Ephys % potentiation at 3 μM,[1],B (“B” indicates potentiation of >100%)
same,EC50,[1],500 to 1000 nM
same,Emax,[1],100 to 500%
same,GluN2A PCA IWB Ephys % potentiation at 3 μM,[2],A (“A” indicates % potentiation up to 100%)
same,EC50,[2],≥ 10000 nM
same,Emax,[2],< 100%
CC[C@]1(O)CC[C@@]2(C)C(=CC[C@H]3[C@@H]4CC[C@H]([C@H](C)CC[C@@H](O)C(C)C)[C@@]4(C)CC(=O)[C@@H]32)C1 [Compound 6],EC50,[1],1 to 100 nM
same,Emax,[1],100 to 500%
same,EC50,[2],1 to 100 nM
same,Emax,[2],100 to 500%
C[C@H](CCC(C)(C)O)[C@H]1CC[C@H]2[C@@H]3CC[C@H]4C[C@@](C)(O)CC[C@]4(C)[C@H]3C(=O)C[C@]12C [Compound 1],GluN2B PCA IWB Ephys % potentiation at 3 μM,[1],B (“B” indicates potentiation of >100%)
same,EC50,[1],500 to 1000 nM
same,Emax,[1],100 to 500%
same,GluN2A PCA IWB Ephys % potentiation at 3 μM,[2],B (“B” indicates potentiation of >100%)
same,EC50,[2],500 to 1000 nM
same,Emax,[2],100 to 500%
C[C@H](CCC(C)(C)O)[C@H]1CC[C@H]2[C@@H]3CC[C@H]4C[C@@H](O)CC[C@]4(C)[C@H]3C(=O)C[C@]12C [Compound 2],GluN2B PCA IWB Ephys % potentiation at 3 μM,[1],A (“A” indicates % potentiation up to 100%)
same,EC50,[1],500 to 1000 nM
same,Emax,[1],< 100%
same,GluN2A PCA IWB Ephys % potentiation at 3 μM,[2],A (“A” indicates % potentiation up to 100%)
same,EC50,[2],1000 to 10000 nM
same,Emax,[2],< 100%
CC[C@]1(O)CC[C@@]2(C)C(=CC[C@H]3[C@@H]4CC[C@H]([C@H](C)CCC(C)(C)O)[C@@]4(C)CC(=O)[C@@H]32)C1 [Compound 5],EC50,[1],100 to 500 nM
same,Emax,[1],100 to 500%
same,EC50,[2],100 to 500 nM
same,Emax,[2],100 to 500%
CC[C@]1(O)CC[C@@]2(C)C(=CC[C@H]3[C@@H]4CC[C@H]([C@H](C)CC[C@@H](O)C(C)(C)C)[C@@]4(C)CC(=O)[C@@H]32)C1 [Compound 10],EC50,[1],1 to 100 nM
same,Emax,[1],100 to 500%
same,EC50,[2],1 to 100 nM
same,Emax,[2],> 500%
CC[C@]1(O)CC[C@@]2(C)C(=CC[C@H]3[C@@H]4CC[C@H]([C@H](C)CC[C@H](O)C(C)C)[C@@]4(C)CC(=O)[C@@H]32)C1 [Compound 7],EC50,[1],1 to 100 nM
same,Emax,[1],100 to 500%
same,EC50,[2],1 to 100 nM
same,Emax,[2],100 to 500%
CC[C@]1(O)CC[C@@]2(C)C(=CC[C@H]3[C@@H]4CC[C@H]([C@H](C)CC[C@H](O)C(C)(C)C)[C@@]4(C)CC(=O)[C@@H]32)C1 [Compound 9],EC50,[1],1 to 100 nM
same,Emax,[1],100 to 500%
same,EC50,[2],1 to 100 nM
same,Emax,[2],> 500%
C[C@H](CCC(C)(C)O)[C@H]1CC[C@H]2[C@@H]3CC=C4C[C@@H](O)CC[C@]4(C)[C@H]3C(=O)C[C@]12C [Compound 4],GluN2B PCA IWB Ephys % potentiation at 3 μM,[1],B (“B” indicates potentiation of >100%)
same,EC50,[1],100 to 500 nM
same,Emax,[1],100 to 500%
same,GluN2A PCA IWB Ephys % potentiation at 3 μM,[2],B (“B” indicates potentiation of >100%)
same,EC50,[2],100 to 500 nM
same,Emax,[2],100 to 500%
C[C@H](CCC(C)(C)O)[C@H]1CC[C@H]2[C@@H]3CC=C4C[C@@](C)(O)CC[C@]4(C)[C@H]3C(C)(O)C[C@]12C (some centres unmarked) [Compound 11],GluN2B PCA IWB Ephys % potentiation at 3 μM,[1],B (“B” indicates potentiation of >100%)
same,EC50,[1],1000 to 10000 nM
same,Emax,[1],100 to 500%
same,GluN2A PCA IWB Ephys % potentiation at 3 μM,[2],B (“B” indicates potentiation of >100%)
same,EC50,[2],500 to 1000 nM
same,Emax,[2],100 to 500%
